Measured values: patent US8163705B2, “Glycolipid and use thereof” (Riken, priority 2006, dated 2012)

Tests used:
[1] = tested on: Splenocytes taken out from a mouse spleen; test: Experimental Example 2: cytokine (IFN-γ, IL-4) production by mouse splenocytes, sandwich ELISA of culture supernatant; assay type: cell-based; details: reagent 20 ng/mL, 48 hours, FIG. 2; for IFN-γ production amount and IL-4 production amount (cytokine production pattern): mouse splenocytes 2×10^5 cells/well, culture supernatant; for IL-4-predominant cytokine production compared with compound b (OCH): mouse splenocytes
Experimental: Splenocytes taken out from a mouse spleen were prepared using an RPMI1640 culture broth (produced by Sigma) containing 10% Fetal calf serum (FCS) at 2×10^5 cells/well (96-well plate). A reagent was added to this culture broth at a concentration of 20 ng/mL; 2 days later (48 hours later), the cytokine content in the culture supernatant was measured by a sandwich ELISA technique. The test substances used were compound 11, compound 12, compound 13 and compound 48 as obtained in Examples 1 to 3 and Reference Example, with compound a and a compound represented by the following formula (b) (OCH, hereinafter referred to as compound b) used as the comparators.
(§1) These findings confirm that the compounds of the present invention are effective as therapeutic drugs for pathologic conditions that can be ameliorated by IL-4.

[2] = tested on: Splenocytes from a mouse spleen; test: Experimental Example 1: cytokine (IFN-γ, IL-4) production by mouse splenocytes, sandwich ELISA of culture supernatant; assay type: cell-based; details: mouse splenocytes 2×10^5 cells/well, reagent 40 ng/mL, 72 hours, FIG. 1
Experimental: Splenocytes from a mouse spleen were prepared using an RPMI1640 culture broth (produced by Sigma) containing 10% Fetal calf serum (FCS) at 2×10^5 cells/well (96-well plate). A reagent was added to this culture broth at a concentration of 40 ng/mL; 3 days later (72 hours later), the cytokine content in the culture supernatant was measured by a sandwich ELISA technique. The test substances used were compound 11, compound 12 and compound 13 as obtained in Examples 1 to 3, with a compound represented by the following formula (a) (α-GalCer, hereinafter referred to as “compound a”) used as the comparator.
as §1

[3] = tested on: Splenocytes taken out from a mouse spleen; details: stated as known; cited from earlier work

Compound | IFN-γ production amount and IL-4 production amount (cytokine production pattern) [1] | IL-4-predominant cytokine production compared with compound b (OCH) [1] | IFN-γ production amount and IL-4 production amount (cytokine production pattern) [2] | cytokine production pattern as known for the comparator [3]
CCCCCCCCCCCCCC[C@@H](O)[C@@H](O)[C@H](CO[C@H]1O[C@H](CO)[C@H](O)[C@H](O)[C@H]1O)NS(=O)(=O)c1ccc(C)cc1 [compound 11, (2S,3S,4R)-1-(α-D-galactopyranosyloxy)-2-(p-toluenesulfonylamino)-3,4-octadecanediol] | IL-4-predominant cytokine production pattern with smaller amounts of IFN-γ produced | capable of inducing IL-4-predominant cytokine production to higher extents than compound b | IL-4-predominant cytokine production pattern | 
CCCCCCCCCCCCCC[C@@H](O)[C@@H](O)[C@H](CO[C@H]1O[C@H](CO)[C@H](O)[C@H](O)[C@H]1O)NS(=O)(=O)c1ccccc1C [compound 12, (2S,3S,4R)-1-(α-D-galactopyranosyloxy)-2-(o-toluenesulfonylamino)-3,4-octadecanediol] | IL-4-predominant cytokine production pattern with smaller amounts of IFN-γ produced | capable of inducing IL-4-predominant cytokine production to higher extents than compound b | IL-4-predominant cytokine production pattern | 
CCCCCCCCCCCCCC[C@@H](O)[C@@H](O)[C@H](CO[C@H]1O[C@H](CO)[C@H](O)[C@H](O)[C@H]1O)NS(=O)(=O)c1cccc(C)c1 [compound 13, (2S,3S,4R)-1-(α-D-galactopyranosyloxy)-2-(m-toluenesulfonylamino)-3,4-octadecanediol] | IL-4-predominant cytokine production pattern with smaller amounts of IFN-γ produced | capable of inducing IL-4-predominant cytokine production to higher extents than compound b | IL-4-predominant cytokine production pattern | 
CCCCCCCCCCCCCCCCS(=O)(=O)N[C@@H](CO[C@H]1O[C@H](CO)[C@H](O)[C@H](O)[C@H]1O)[C@H](O)[C@H](O)CCCCCCCCCCCCCC [compound 48, (2S,3S,4R)-1-(α-D-galactopyranosyloxy)-2-(hexadecanesulfonylamino)-3,4-octadecanediol] | IL-4-predominant cytokine production pattern with smaller amounts of IFN-γ produced | capable of inducing IL-4-predominant cytokine production to higher extents than compound b |  | 
CCCCCCCCCCCCCCCCCCCCCCCCCC(=O)N[C@@H](COC1OC(CO)C(O)C(O)C1O)[C@H](O)[C@H](O)CCCCCCCCCCCCCC (some centres unmarked) [compound a, reference compound] | produced both IFN-γ and IL-4 in large amounts |  | produced both IFN-γ and IL-4 in large amounts | 
CCCCCCCCCCCCCCCCCCCCCCCC(=O)N[C@@H](COC1OC(CO)C(O)C(O)C1O)[C@H](O)[C@H](O)CCCCC (some centres unmarked) [compound b] |  |  |  | induces IL-4-predominant cytokine production
